# Test results: patent publication US6737383B1, “Herbicidal oxadiazolidines” (priority 1999, dated 2004)
# Assays:
# bamyardgrass = assay: Test B flood test barnyardgrass; assay type: in vivo, Echinochloa crus-galli
# In short: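 Each value is a visual injury score relative to controls, with 10 meaning complete control and 0 no effect. Evaluation took place twelve to sixteen days after the 2-leaf-stage plants were treated and kept in the greenhouse.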
# winter barley = assay: Test E winter barley; assay type: in vivo, Hordeum vulgare; settings: Preemergence
# winter wheat [1] = assay: Test E winter wheat; assay type: in vivo, Triticum aestivum; settings: Postemergence, 0 to 100 scale, 0 is no effect, 100 is complete control
# In short: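 For postemergence, application to 1- to 4-leaf plants growing in a 60:40 sandy loam–potting mix substrate. Formulation: non-phytotoxic solvent mixture plus surfactant. Untreated controls served as the reference for the visual rating after ~21–28 days.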
# blackgrass [2] = assay: Test B pre/postemergence blackgrass; assay type: in vivo, Alopecurus myosuroides
# In short: (§1)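 Herbicidal effect was estimated by eye on a ten-point control scale after plants spent twelve to sixteen days in a greenhouse following soil or foliar treatment. Foliar sprays targeted plants at one to four leaves; all doses were formulated in a non-phytotoxic solvent with surfactant.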
# blackgrass [3] = assay: Test E blackgrass; assay type: in vivo, Alopecurus myosuroides; settings: Preemergence
# Italian ryegrass = assay: Test E Italian ryegrass; assay type: in vivo, Lolium multiflorum; settings: Preemergence
# surinam grass = assay: Test B pre/postemergence surinam grass; assay type: in vivo, Brachiaria decumbens
# In short: as §1
# winter wheat [4] = assay: Test E winter wheat; assay type: in vivo, Triticum aestivum; settings: Preemergence
# wild oat = assay: Test E wild oat; assay type: in vivo, Avena fatua; settings: Preemergence
# sugar beet = assay: Test B pre/postemergence sugar beet; assay type: in vivo, Beta vulgaris; settings: for Sugarbeets plant response rating: scale of 0 to 10 where 0 is no effect and 10 is complete control
# In short: as §1
# green foxtail = assay: Test E green foxtail; assay type: in vivo, Setaria viridis; settings: Preemergence
# [5] = Rate 125 g/ha, 0 to 100 scale (0 no effect, 100 complete control)
# [6] = Rate 500 g/ha, 0 to 100 scale (0 no effect, 100 complete control)
# [7] = Postemergence, Rate 125 g/ha, scale 0 to 10, 0 is no effect, 10 is complete control
# [8] = Preemergence, Rate 62 g/ha, scale 0 to 10 (0 no effect, 10 complete control)
# [9] = Preemergence, Rate 250 g/ha, scale of 0 to 10 where 0 is no effect and 10 is complete control
# [10] = Preemergence, Rate 500 g/ha, scale of 0 to 10 where 0 is no effect and 10 is complete control
# [11] = Rate 62 g/ha, Postemergence, scale of 0 to 10 where 0 is no effect and 10 is complete control
# [12] = Rate 250 g/ha, Postemergence, scale of 0 to 10 where 0 is no effect and 10 is complete control
# [13] = Rate 500 g/ha, Postemergence, scale 0 to 10, 0 no effect, 10 complete control
smiles,measurement,setting,value
CC(C)N(C(=O)n1oc(=O)n(C2CCC2)c1=O)c1ccc(F)cc1F [Compound 351],"Plant response rating, Barnyardgrass","bamyardgrass; Postemergence (flood test), Rate 125 g/ha, scale 0 to 10, 0 is no effect, 10 is complete control",3
same,Barnyardgrass plant response rating,"bamyardgrass; Rate 62 g/ha, Postemergence (flood test species), scale of 0 to 10 where 0 is no effect and 10 is complete control",0
same,"Plant response rating, Barnyardgrass (0 to 10 scale, 0 is no effect, 10 is complete control)","bamyardgrass; Rate 62 g/ha, flood test species, Pre-emergence, visual evaluation after twelve to sixteen days",0
same,Barnyardgrass plant response rating,"bamyardgrass; Rate 125 g/ha, Pre-emergence, flood test species, scale 0 to 10 where 0 is no effect and 10 is complete control",0
same,"Plant response rating, Barnyardgrass","bamyardgrass; Rate 250 g/ha, Postemergence (flood test species), scale of 0 to 10 where 0 is no effect and 10 is complete control",3
same,Barnyardgrass plant response rating,"bamyardgrass; Rate 250 g/ha, Pre-emergence, flood-test species, scale 0 to 10, 0 is no effect, 10 is complete control",0
same,"Plant response rating, Barnyardgrass","bamyardgrass; Rate 500 g/ha, listed under Postemergence (flood test species), scale 0 to 10, 0 no effect, 10 complete control",5
same,Barnyardgrass plant response rating,"bamyardgrass; Rate 500 g/ha, Pre-emergence, flood test species, scale 0 to 10 (0 no effect, 10 complete control)",0
same,"Plant response rating, Barley (winter)",winter barley; [5],70
same,"Plant response rating, Barley (winter)","winter barley; Rate 250 g/ha, 0 to 100 scale, 0 no effect, 100 complete control",70
same,"Plant response rating, Barley (winter)",winter barley; [6],80
same,"Plant response rating, Wheat (winter)",winter wheat [1]; Rate 125 g/ha,60
same,"Plant response rating, Wheat (winter)",winter wheat [1]; Rate 250 g/ha,70
same,"Plant response rating, Wheat (winter)",winter wheat [1]; Rate 500 g/ha,75
same,"Plant response rating, Blackgrass",blackgrass [2]; [7],2
same,"Plant response rating, Blackgrass",blackgrass [2]; [8],0
same,Blackgrass plant response rating (0 to 10 scale),"blackgrass [2]; Preemergence, Rate 125 g/ha",2
same,Blackgrass plant response rating,blackgrass [2]; [9],3
same,Blackgrass plant response rating,blackgrass [2]; [10],8
same,Blackgrass plant response rating,blackgrass [2]; [11],0
same,"Plant response rating, Blackgrass",blackgrass [2]; [12],4
same,"Plant response rating, Blackgrass",blackgrass [2]; [13],4
same,"Plant response rating, Blackgrass",blackgrass [3]; [5],35
same,"Plant response rating, Blackgrass","blackgrass [3]; Rate 250 g/ha, 0 to 100 scale",85
same,"Plant response rating, Blackgrass",blackgrass [3]; [6],100
same,"Plant response rating, I. Ryegrass",Italian ryegrass; [5],55
same,"Plant response rating, I. Ryegrass","Italian ryegrass; Rate 250 g/ha, 0 to 100 scale",60
same,"Plant response rating, I. Ryegrass",Italian ryegrass; [6],60
same,"Plant response rating, B. signalgrass",surinam grass; [7],0
same,"Plant response rating, B. signalgrass",surinam grass; [8],0
same,"B. signalgrass plant response rating (0 to 10 scale, 0 is no effect, 10 is complete control)","surinam grass; Preemergence, Rate 125 g/ha",0
same,B. signalgrass plant response rating,surinam grass; [9],2
same,B. signalgrass plant response rating,surinam grass; [10],4
same,B. signalgrass plant response rating,surinam grass; [11],0
same,"Plant response rating, B. signalgrass",surinam grass; [12],0
same,"Plant response rating, B. signalgrass",surinam grass; [13],4
same,"Plant response rating, Wheat (winter)",winter wheat [4]; [5],50
same,"Plant response rating, Wheat (winter)","winter wheat [4]; Rate 250 g/ha, 0 to 100 scale",60
same,"Plant response rating, Wheat (winter)",winter wheat [4]; [6],70
same,"Plant response rating, Wild oat",wild oat; [5],70
same,"Plant response rating, Wild oat","wild oat; Rate 250 g/ha, 0 to 100 scale",70
same,"Plant response rating, Wild oat",wild oat; [6],80
same,"Plant response rating, Sugarbeets",sugar beet; [7],0
same,"Plant response rating, Sugarbeets",sugar beet; [8],2
same,Sugarbeets plant response rating (0 to 10 scale),"sugar beet; Preemergence, Rate 125 g/ha",2
same,Sugarbeets plant response rating,"sugar beet; Preemergence, Rate 250 g/ha",6
same,Sugarbeets plant response rating,"sugar beet; Preemergence, Rate 500 g/ha",8
same,Sugarbeets plant response rating,"sugar beet; Rate 62 g/ha, Postemergence",0
same,"Plant response rating, Sugarbeets",sugar beet; [13],2
same,"Plant response rating, Green foxtail",green foxtail; [5],40
same,"Plant response rating, Green foxtail","green foxtail; Rate 250 g/ha, 0 to 100 scale",90
same,"Plant response rating, Green foxtail",green foxtail; [6],85
